Results from patent publication US20230219961A1, “Pyridine acetamide derivative serving as CDK inhibitor, and preparation method therefor and use thereof” (Suzhou AlphaMa Biotechnology Co., Ltd., priority 2020, published 2023).

What was measured:
CDK7 = target: T1, CDK7 (Homo sapiens, UniProt P50613); assay: Inhibitory effect on the kinase activity of CDK7 in vitro (Caliper); format: biochemical; settings: 77 uM ATP, 0.2 ug/uL CTD3 peptide; read-out: CDK 7 IC50
T1 construct: purchased Eurofilns (sic; Eurofins) 14-476 M
T1 sequence (P50613 whole entry): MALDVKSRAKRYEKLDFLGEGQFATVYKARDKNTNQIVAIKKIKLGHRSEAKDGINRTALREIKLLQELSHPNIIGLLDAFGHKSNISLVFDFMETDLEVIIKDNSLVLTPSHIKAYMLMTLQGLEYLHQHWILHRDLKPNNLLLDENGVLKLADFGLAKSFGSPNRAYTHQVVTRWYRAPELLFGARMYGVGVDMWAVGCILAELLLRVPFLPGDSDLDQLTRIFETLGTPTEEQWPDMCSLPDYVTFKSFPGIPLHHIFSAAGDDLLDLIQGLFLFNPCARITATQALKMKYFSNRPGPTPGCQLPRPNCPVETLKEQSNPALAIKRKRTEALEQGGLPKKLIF
T1 sequence (P51946 whole entry partner): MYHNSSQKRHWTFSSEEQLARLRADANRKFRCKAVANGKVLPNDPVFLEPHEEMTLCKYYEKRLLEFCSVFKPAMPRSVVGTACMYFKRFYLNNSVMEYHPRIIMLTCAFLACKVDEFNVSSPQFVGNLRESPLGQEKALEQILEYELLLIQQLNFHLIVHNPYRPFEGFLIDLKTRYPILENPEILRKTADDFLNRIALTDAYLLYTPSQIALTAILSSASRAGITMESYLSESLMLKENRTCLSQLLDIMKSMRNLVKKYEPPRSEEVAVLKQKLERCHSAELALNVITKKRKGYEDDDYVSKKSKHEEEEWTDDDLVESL
T1 sequence (P51948 whole entry partner): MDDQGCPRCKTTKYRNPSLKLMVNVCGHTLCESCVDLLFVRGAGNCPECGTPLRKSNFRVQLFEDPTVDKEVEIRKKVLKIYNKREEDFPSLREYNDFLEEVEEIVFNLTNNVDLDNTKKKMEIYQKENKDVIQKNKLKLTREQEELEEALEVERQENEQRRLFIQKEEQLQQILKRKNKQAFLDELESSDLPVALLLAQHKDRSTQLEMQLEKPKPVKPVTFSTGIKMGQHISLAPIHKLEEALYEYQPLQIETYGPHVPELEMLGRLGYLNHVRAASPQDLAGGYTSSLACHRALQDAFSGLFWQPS
Description: (§1) The detection of the inhibitory effect of the compounds of the present disclosure on the kinase activity of CDK7/CDK9 in vitro was determined by the following method:
(§2) 1) The compound was accurately weighed and dissolved in DMSO (Sigma, D2650) to a concentration of 100 mM for later use. The compound was diluted to 5-fold of a desired highest concentration, and diluted 4-fold into 6 concentration gradients, allowing the final concentration of the compound in the reaction system to be CDK7: 3000, 750, 188, 47, 12, 3 nM; CDK9: 100, 25, 6.25, 1.56, 0.39, 0.098 nM. 5 ul was taken to a 384-well plate (Corning, 4512).
(§3) 2) Kinase reaction: 10uL protein kinase (CDK7: Eurofilns,14-476 M; CDK9: Millipore,14-685 M) solution was added to the 384-well plate (Corning, 4512) containing the compound, and allowed to stand at room temperature for 10 min; a mixed solution of ATP(Sigma, A7699) and substrate polypeptide (CDK7: 77 uM ATP&0.2ug/uL CTD3 peptide (GL Biochem,SY356885); CDK9: 10 uM ATP&0.2 ug/uL CTD3 peptide (GL Biochem,SY356885)) was added, and allowed to stand at 28° C. for a short time; and then a stop solution was added to terminate the reaction at 25 uL per well.
(§4) 3) Detection: Data was collected by Caliper.
(§5) 4) Calculation: The IC50 value was calculated by Graphpad prism 5.0 software according to the concentration of the compound and the corresponding signal value.

Mv4-11 cells = assay: Inhibition of the proliferation of Mv4-11 cells (CCK8); format: cell-based
Description: The inhibition effect of the compounds of the present disclosure on the proliferation of Mv4-11 cells (ATCC:CRL-9591™) in vitro was determined by the following method:
1) Cell inoculation: Mv4-11 cells with good growing state in logarithmic growth phase were inoculated into a 96-well plate at 20000 cells per well and 50 uL, and cultured at 37° C. and under 5% CO2 condition for 2-4 h.
2) Administration: The compound was diluted with 1640 medium containing 10% FBS and 1% PS: 0.4 uL of the compound with an initial concentration of 1 mM was placed in a dilution plate, each added with 199.6 uL of the above culture medium, and gradiently diluted 4-fold, so that the final concentration in the added cell was 1000, 250, 62.5, 15.625, 3.91, 0.98, 0.24, 0.06 nM. 50 µL of the medium containing the compound was sequentially added, and it was placed in a 37° C., 5% CO2 cell incubator for 48 hours.
3) Detection: 10uL CCK8 (Dojindo, CK 04) solution was added to each well, incubated in 37° C. 5% CO2 cell incubator for 2 hours, and then the OD450 value was read by Synegry H1(BioTek) multimode microplate reader.
4) Calculation: The IC50 value was calculated using Graphpad prism 5.0 software according to the concentration of the compound and the corresponding signal value.

CDK9 = target: T2, CDK9 (Homo sapiens, UniProt P50750); assay: Inhibitory effect on the kinase activity of CDK9 in vitro (Caliper); format: biochemical; settings: 10 uM ATP, 0.2 ug/uL CTD3 peptide; read-out: CDK 9 IC50
T2 construct: purchased Millipore 14-685 M
T2 sequence (P50750 whole entry): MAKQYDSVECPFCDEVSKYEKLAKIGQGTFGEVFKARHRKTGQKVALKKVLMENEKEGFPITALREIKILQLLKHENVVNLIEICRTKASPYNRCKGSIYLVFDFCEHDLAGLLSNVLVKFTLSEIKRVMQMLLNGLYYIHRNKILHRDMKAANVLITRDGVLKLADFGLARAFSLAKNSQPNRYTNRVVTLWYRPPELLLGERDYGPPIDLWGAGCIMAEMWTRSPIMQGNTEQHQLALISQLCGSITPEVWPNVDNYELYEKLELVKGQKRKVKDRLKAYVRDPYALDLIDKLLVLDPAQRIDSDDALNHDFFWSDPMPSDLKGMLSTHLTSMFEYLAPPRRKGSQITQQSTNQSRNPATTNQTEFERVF
T2 sequence (O60563 whole entry partner): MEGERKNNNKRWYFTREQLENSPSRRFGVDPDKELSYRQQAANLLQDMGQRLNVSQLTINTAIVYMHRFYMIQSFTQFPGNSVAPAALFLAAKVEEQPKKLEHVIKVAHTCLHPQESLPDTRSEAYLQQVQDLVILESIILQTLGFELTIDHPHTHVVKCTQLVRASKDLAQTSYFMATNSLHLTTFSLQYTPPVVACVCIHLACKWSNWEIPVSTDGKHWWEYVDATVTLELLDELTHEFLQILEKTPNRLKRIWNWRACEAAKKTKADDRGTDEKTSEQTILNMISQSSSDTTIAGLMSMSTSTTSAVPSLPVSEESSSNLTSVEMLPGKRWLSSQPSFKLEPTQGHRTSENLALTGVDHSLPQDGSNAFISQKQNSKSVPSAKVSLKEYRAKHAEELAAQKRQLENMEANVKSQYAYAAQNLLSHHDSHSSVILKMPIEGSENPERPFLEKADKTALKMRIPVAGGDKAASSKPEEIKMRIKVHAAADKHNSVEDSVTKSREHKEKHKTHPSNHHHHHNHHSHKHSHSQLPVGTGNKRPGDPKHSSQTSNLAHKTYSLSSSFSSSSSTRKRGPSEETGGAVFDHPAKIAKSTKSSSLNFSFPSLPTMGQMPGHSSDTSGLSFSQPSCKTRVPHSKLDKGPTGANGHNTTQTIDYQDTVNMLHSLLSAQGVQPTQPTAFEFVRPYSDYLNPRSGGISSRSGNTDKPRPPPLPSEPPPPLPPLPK
Description: as §1, §2, §3, §4, §5

Row | Structure (SMILES) | IC50 (CDK7) | IC50 (Mv4-11 cells; Homo sapiens, MV4-11, 48 h) | IC50 (CDK9) | IC50 (Mv4-11 cells; 48 hours)
1 | CC1(C)Cc2c(-c3cc(NC(=O)Cc4cccc(C(N)=O)c4)ncc3Cl)cnn2C1 [Compound 1, 3-(2-((5-chloro-4-(5,5-dimethyl-5,6-dihydro-4H-pyrrolo[1,2-b]pyrazol-3-yl)pyridin-2-yl)amino)-2-oxoethyl)benzamide] | 96 nM | 7.4 nM | 3 nM | –
2 | C[C@H](C(=O)Nc1cc(-c2cnn3c2CC(C)(C)C3)c(Cl)cn1)c1cccc(C(N)=O)c1 [Compound 2-1, (S)-3-(1-((5-chloro-4-(5,5-dimethyl-5,6-di hydro-4H-pyrrolo[1,2-b]pyrazol-3-yl)pyridin-2-yl)amino)-1-oxopropan-2-yl)benzamide (assumed)] | – | > 1000 nM | – | –
3 | CC1(C)Cc2c(-c3cc(NC(=O)Cc4cccc(C#N)c4)ncc3Cl)cnn2C1 [Compound 4, N-(5-chloro-4-(5,5-dimethyl-5,6-dihydro-4 H-pyrrolo[1,2-b]pyrazol-3-yl)pyridin-2-yl) -2-(3-cyanophenyl)acetamide] | – | 10.7 nM | – | –
4 | CC1(C)Cc2c(-c3cc(NC(=O)Cc4ccncc4)ncc3Cl)cnn2C1 [Compound 5, N-(5-chloro-4-(5,5-dimethyl-5,6-dihydro-4 H-pyrrolo[1,2-b]pyrazol-3-yl)pyridin-2-yl) -2-(pyridin-4-yl)acetamide] | – | 26 nM | – | –
5 | CC1(C)Cc2c(-c3cc(NC(=O)Cc4cccnc4)ncc3Cl)cnn2C1 [Compound 6, N-(5-chloro-4-(5,5-dimethyl-5,6-dihydro-4 H-pyrrolo[1,2-b]pyrazol-3-yl)pyridin-2-yl) -2-(pyridin-3-yl)acetamide] | 197 nM | 9.9 nM | 3.1 nM | –
6 | CC1(C)Cc2c(-c3cc(NC(=O)Cc4cccc(C#N)n4)ncc3Cl)cnn2C1 [Compound 7, N-(5-chloro-4-(5,5-dimethyl-5,6-dihydro-4 H-pyrrolo[1,2-b]pyrazol-3-yl)pyridin-2-yl) -2-(6-cyanopyridin-2-yl)acetamide] | 118 nM | 8.2 nM | 1.7 nM | –
7 | CC(=O)Nc1cccc(CC(=O)Nc2cc(-c3cnn4c3CC(C)(C)C4)c(Cl)cn2)c1 [Compound 8, 2-(3-acetylaminophenyl)-N-(5-chloro-4-(5,5-dimethyl-5,6-dihydro-4H-pyrrolo[1,2-b]pyrazol-3-yl)pyridin-2-yl)acetamide] | 116 nM | 19.6 nM | 3.4 nM | –
8 | CC1(C)Cc2c(-c3cc(NC(=O)Cc4cccc(NC(=O)CC#N)c4)ncc3Cl)cnn2C1 [Compound 9, N-(5-chloro-4-(5,5-dimethyl-5,6-dihydro-4 H-pyrrolo[1,2-b]pyrazol-3-yl)pyridin-2-yl) -2-(3-(2-cyanoacetylamino)phenyl)acetamide] | – | 13 nM | – | –
9 | C[C@H](C(=O)Nc1cc(-c2cnn3c2CC(C)(C)C3)c(Cl)cn1)c1cccnc1 [Compound 11-1, (S)-N-(5-chloro-4-(5,5-dimethyl-5,6-dihydro-4H-pyrrolo[1,2-b]pyrazol-3-yl)pyridin-2-yl)-2-(pyridin-3-yl)propionamide (assumed)] | – | 893 nM | – | –
10 | COc1ccc(CC(=O)Nc2cc(-c3cnn4c3CC(C)(C)C4)c(Cl)cn2)cn1 [Compound 12, N-(5-chloro-4-(5,5-dimethyl-5,6-dihydro-4 H-pyrrolo[1,2-b]pyrazol-3-yl)pyridin-2-yl) -2-(6-methoxypyridin-3-yl)acetamide] | – | 12.2 nM | 5.2 nM | –

Continued, values first:

Row | IC50 (CDK7) | IC50 (Mv4-11 cells; Homo sapiens, MV4-11, 48 h) | IC50 (CDK9) | IC50 (Mv4-11 cells; 48 hours) | Structure (SMILES)
11 | 109 nM | 4.2 nM | – | – | CC(=O)N[C@@H]1CCC[C@H](C(=O)Nc2cc(-c3cnn4c3CC(C)(C)C4)c(Cl)cn2)C1 [AZD4573, reference compound]
12 | – | 10.1 nM | 2.3 nM | – | CC(=O)Nc1cccc([C@H](C)C(=O)Nc2cc(-c3cnn4c3CC(C)(C)C4)c(Cl)cn2)c1 [Compound 14-1, (S)-2-(3-acetylacetylaminophenyl)-N-(5-chloro-4-(5,5-dimethyl-5,6-dihydro-4H-pyrrolo [1,2-b]pyrazol-3-yl)pyridin-2-yl)propionamide (assumed)]
13 | – | 136 nM | – | – | CC(=O)Nc1cccc([C@@H](C)C(=O)Nc2cc(-c3cnn4c3CC(C)(C)C4)c(Cl)cn2)c1 [Compound 14-2, (R)-2-(3-acetylaminophenyl)-N-(5-chloro-4-(5,5-dimethyl-5,6-dihydro-4H-pyrrolo[1,2-b]pyrazol-3-yl)pyridin-2-yl)propionamide (assumed)]
14 | – | 11.2 nM | 5.9 nM | – | C[C@H](C(=O)Nc1cc(-c2cnn3c2CC(C)(C)C3)c(Cl)cn1)c1ccnc(C#N)c1 [Compound 15-1, (S)-N-(5-chloro-4-(5,5-dimethyl-5,6-dihydro-4H-pyrrolo[1,2-b]pyrazol-3-yl)pyridin-2-yl)-2-(2-cyanopyridin-4-yl)propionamide (assumed)]
15 | – | 161 nM | – | – | C[C@@H](C(=O)Nc1cc(-c2cnn3c2CC(C)(C)C3)c(Cl)cn1)c1ccnc(C#N)c1 [Compound 15-2, (R)-N-(5-chloro-4-(5,5-dimethyl-5,6-dihydro-4H-pyrrolo[1,2-b]pyrazol-3-yl)pyridin-2-yl)-2-(2-cyanopyridin-4-yl)propionamide (assumed)]
16 | – | 6.4 nM | 3.4 nM | – | COc1cc([C@H](C)C(=O)Nc2cc(-c3cnn4c3CC(C)(C)C4)c(Cl)cn2)ccn1 [Compound 16-1, (S)-N-(5-chloro-4-(5,5-dimethyl-5,6-dihydro-4H-pyrrolo[1,2-b]pyrazol-3-yl)pyridin-2-yl)-2-(2-methoxypyridin-4-yl)propionamide (assumed)]
17 | – | 469 nM | – | – | COc1cc([C@@H](C)C(=O)Nc2cc(-c3cnn4c3CC(C)(C)C4)c(Cl)cn2)ccn1 [Compound 16-2, (R)-N-(5-chloro-4-(5,5-dimethyl-5,6-dihydro-4H-pyrrolo[1,2-b]pyrazol-3-yl)pyridin-2-yl)-2-(2-methoxypyridin-4-yl)propionamide (assumed)]
18 | 74 nM | 25 nM | 3 nM | – | C[C@@H](C(=O)Nc1cc(-c2cnn3c2CC(C)(C)C3)c(Cl)cn1)c1ccnc(C(C)(C)O)c1 [Compound 18-2, (R)-N-(5-chloro-4-(5,5-dimethyl-5,6-dihydro-4H-pyrrolo[1,2-b]pyrazol-3-yl)pyridin-2-yl)-2-(2-(2-hydroxypropan-2-yl)pyridin-4-yl)propionamide (assumed)]
19 | – | – | – | 13.9 nM | C[C@H](C(=O)Nc1cc(-c2cnn3c2CC(C)(C)C3)c(Cl)cn1)c1ccc(-c2cccnc2)nc1 [Compound 19-1, (S)-2-([2,3′-bipyridin]-5-yl)-N-(5-chloro-4-(5,5-dimethyl-5,6-dihydro-4H-pyrrolo[1,2-b]pyrazol-3-yl)pyridin-2-yl)propionamide (assumed)]
20 | 25.1 nM | 3.7 nM | 8.4 nM | – | C=CC(=O)NCc1ccc(-c2ccc([C@H](C)C(=O)Nc3cc(-c4cnn5c4CC(C)(C)C5)c(Cl)cn3)cn2)cn1 [Compound 20-1, (S)-N-((5-(1-((5-chloro-4-(5,5-dimethyl-5,6-dihydro-4H-pyrrolo[1,2-b]pyrazol-3-yl)pyridin-2-yl)amino)-1-oxopropan-2-yl)-[2,3′ -bipyridin]-6′-yl)methyl)acrylamide (assumed)]
21 | – | 850 nM | – | – | C=CC(=O)NCc1ccc(-c2ccc([C@@H](C)C(=O)Nc3cc(-c4cnn5c4CC(C)(C)C5)c(Cl)cn3)cn2)cn1 [Compound 20-2, (R)-N-((5-(1-((5-chloro-4-(5,5-dimethyl-5,6-dihydro-4H-pyrrolo[1,2-b]pyrazol-3-yl)pyridin-2-yl)amino)-1-oxopropan-2-yl)-[2,3′ -bipyridin]-6′-yl)methyl)acrylamide (assumed)]
